Results taken from ChEMBL document CHEMBL4680171, “Oxadiazolylthiazoles as novel and selective antifungal agents” (Eur J Med Chem, 2020).
Values after ≈ are worked out from the molar mass of the structure shown.

What was measured:
Type in all cases: functional
Staphylococcus aureus = test: Antibacterial activity against methicillin resistant Staphylococcus aureus subsp. aureus USA300 assessed as reduction in bacterial growth by CLSI based broth microdilution method
Escherichia coli [1] = test: Antibacterial activity against Escherichia coli JW55031 harboring tolC mutation assessed as reduction in bacterial growth by CLSI based broth microdilution method
Escherichia coli [2] = test: Antibacterial activity against Escherichia coli BW25113 assessed as reduction in bacterial growth by CLSI based broth microdilution method
Clostridioides difficile = test: Antibacterial activity against Clostridium difficile BAA1870 assessed as reduction in bacterial growth by CLSI based broth microdilution method
Candida albicans = test: Antifungal activity against Candida albicans SS5314 assessed as reduction in fungal growth by CLSI based broth microdilution method

Compound	MIC (Staphylococcus aureus) [µg/mL]	MIC (Escherichia coli [1]) [µg/mL]	MIC (Escherichia coli [2]) [µg/mL]	MIC (Clostridioides difficile) [µg/mL]	MIC (Candida albicans) [µg/mL]
Cc1nc(-c2ccc(C(C)(C)C)cc2)sc1-c1nnc(N2CCC[C@H]2CO)o1	> 64	> 64	> 64	16 (≈ 40.1 µM)	> 64
Cc1nc(-c2ccc(C(C)(C)C)cc2)sc1-c1nnc(NCCCN)o1	> 64	> 64	> 64	64 (≈ 172 µM)	16 (≈ 43.1 µM)
GENTAMICIN	–	< 0.5	< 0.5	–	–
Cc1nc(-c2ccc(C(C)(C)C)cc2)sc1-c1nnc(NCC(=N)N)o1	> 64	> 64	> 64	64 (≈ 173 µM)	> 64
Cc1nc(-c2ccc(C(C)(C)C)cc2)sc1-c1nnc(NCCO)o1	> 64	> 64	> 64	32 (≈ 89.3 µM)	> 64
Cc1nc(-c2ccc(C(C)(C)C)cc2)sc1-c1nnc(N[C@@H]2CCCC[C@H]2N)o1 (relative stereo)	64 (≈ 156 µM)	> 64	> 64	16 (≈ 38.9 µM)	64 (≈ 156 µM)
Cc1nc(-c2ccc(C(C)(C)C)cc2)sc1-c1nnc(NCCCO)o1	> 64	> 64	> 64	32 (≈ 85.9 µM)	> 64
Cc1nc(-c2ccc(C(C)(C)C)cc2)sc1-c1nnc(NCC2CCCCN2)o1 (configuration not stated)	32 (≈ 77.8 µM)	16 (≈ 38.9 µM)	> 64	16 (≈ 38.9 µM)	> 64
Cc1nc(-c2ccc(C(C)(C)C)cc2)sc1-c1nnc(NC2CCNC2)o1 (configuration not stated)	32 (≈ 83.4 µM)	32 (≈ 83.4 µM)	> 64	16 (≈ 41.7 µM)	> 64
Cc1nc(-c2ccc(C(C)(C)C)cc2)sc1-c1nnc(NCCN(C)C)o1	64 (≈ 166 µM)	32 (≈ 83 µM)	> 64	16 (≈ 41.5 µM)	32 (≈ 83 µM)
Cc1nc(-c2ccc(C(C)(C)C)cc2)sc1-c1nnc(NC[C@H](O)CO)o1	> 64	32 (≈ 82.4 µM)	> 64	16 (≈ 41.2 µM)	> 64
Cc1nc(-c2ccc(C(C)(C)C)cc2)sc1-c1nnc(N2CCC[C@H]2C(N)=O)o1	> 64	64 (≈ 156 µM)	> 64	32 (≈ 77.8 µM)	> 64
Cc1nc(-c2ccc(C(C)(C)C)cc2)sc1-c1nnc(N2CCC[C@@H]2CO)o1	> 64	> 64	> 64	32 (≈ 80.3 µM)	> 64
